Where two headings read alike, the source gives them in different places.
Legend:
[1] = tested on: 60 cancer cell lines (NCI 60 cancer cell line series); test: NCI-DTP in vitro cancer screen, sulforhodamine B (SRB) growth inhibition, 48 hour exposure; type: cell-based, human
How it was run: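 Sixty NCI-DTP cancer lines plated at line-specific densities, dosed on day 1 in duplicate with 5 concentrations at ten-fold intervals. After 48 h exposure, cell mass read by SRB staining; GI50 (50% growth inhibition) taken from dose-response curves and expressed as -log GI50.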

[2] = tested on: 60 cancer cell lines (NCI 60 cancer cell line series); conditions: cited from earlier work

N[C@@H](Cc1ccc(N(CCCl)CCCl)cc1)C(=O)O [Melphalan]
4.2: -Log (GI50) ([2]; Melanoma SK-MEL-2 (CL10005)) | -Log (GI50) ([2]; Renal TK10 CL9024)
4.8: -Log (GI50) ([2]; CNS SF-539 CL12016) | -Log (GI50) ([2]; NSCLC HOP-62 (CL1026)) | -Log (GI50) ([2]; Renal 786-O CL9018) | -Log (GI50) ([2]; Renal SN12C CL9008)
1: classification of cell line as Low(1), Medium(2) or High(3) sensitivity to compound ([1]; Colon HT29(I) CL4001) | classification of cell line as Low(1), Medium(2) or High(3) sensitivity to compound ([1]; Colon KM12 (CL4017)) | sensitivity class NSCLC NCI-H332M CL1017 ([1]; cell line NSCLC NCI-H332M, CL1017) | sensitivity class Renal A498 CL9013 ([1]; cell line Renal A498, CL9013) | sensitivity class Renal TK10 CL9024 ([1]; cell line Renal TK10, CL9024)
5.6: -Log (GI50) ([2]; Leukemia MOLT-4 (CL7006))
4.4: -Log (GI50) ([2]; Breast BT-549 (CL5013)) | -Log (GI50) ([2]; Breast MCF7/ADRr (CL5002)) | -Log (GI50) ([2]; Breast MDA-MB-435 (CL5011)) | -Log (GI50) ([2]; Colon COLO-250 CL4010) | -Log (GI50) ([2]; Colon HCT-15 CL4015) | -Log (GI50) ([2]; Colon HCT-116 (CL4003)) | -Log (GI50) ([2]; Leukemia RPMI-8226(I) (CL7010)) | -Log (GI50) ([2]; Melanoma SK-MEL-5 (CL10007)) | -Log (GI50) ([2]; Melanoma UACC-257 (CL10021)) | -Log (GI50) ([2]; NSCLC HOP-92 (CL1029)) | -Log (GI50) ([2]; NSCLC NCI-H226 CL1013) | -Log (GI50) ([2]; Ovarian OVCAR-3 CL6001) | -Log (GI50) ([2]; Ovarian OVCAR-4 CL6002) | -Log (GI50) ([2]; Ovarian OVCAR-8 CL6005) | -Log (GI50) ([2]; Prostate PC-3(I) CL11001)
4.3: -Log (GI50) ([2]; Breast HS-578T CL5006) | -Log (GI50) ([2]; Breast MDA-MB-231 CL5005) | -Log (GI50) ([2]; Breast MDA-N CL5012) | -Log (GI50) ([2]; CNS SNB-19 (CL12002)) | -Log (GI50) ([2]; Colon HCC-2998 (CL4002)) | -Log (GI50) ([2]; Leukemia K562(I) CL7005) | -Log (GI50) ([2]; Melanoma SK-MEL-28 (CL10008)) | -Log (GI50) ([2]; NSCLC EKVX (CL1008)) | -Log (GI50) ([2]; Ovarian IGROV1 CL6010) | -Log (GI50) ([2]; Ovarian OVCAR-5 CL6003) | -Log (GI50) ([2]; Prostate DU-145 CL11003) | -Log (GI50) ([2]; Renal UO-31 CL9004)
4.1: -Log (GI50) ([2]; Colon HT29(I) CL4001) | -Log (GI50) ([2]; Colon KM12 (CL4017)) | -Log (GI50) ([2]; NSCLC NCI-H332M CL1017)
5.2: -Log (GI50) ([2]; NSCLC NCI-H460 CL1021)
4.7: -Log (GI50) ([2]; CNS SF-268 CL12014) | -Log (GI50) ([2]; CNS SF-295 CL12015) | -Log (GI50) ([2]; Melanoma LOX IMVI CL10001) | -Log (GI50) ([2]; Renal RXF-393 CL9016)
4.5: -Log (GI50) ([2]; CNS SNB-75(I) CL12005) | -Log (GI50) ([2]; Colon SW-620 (CL4009)) | -Log (GI50) ([2]; NSCLC A549/ATCC (CL1004)) | -Log (GI50) ([2]; Ovarian SK-OV-3 CL6011)
4.0: -Log (GI50) ([2]; Renal A498 CL9013)
2: classification of cell line as Low(1), Medium(2) or High(3) sensitivity to compound [1] | classification of cell line as Low(1), Medium(2) or High(3) sensitivity to compound ([1]; Colon COLO-250 CL4010) | classification of cell line as Low(1), Medium(2) or High(3) sensitivity to compound ([1]; Colon HCC-2998 (CL4002)) | classification of cell line as Low(1), Medium(2) or High(3) sensitivity to compound ([1]; Colon HCT-15 CL4015) | classification of cell line as Low(1), Medium(2) or High(3) sensitivity to compound ([1]; Colon HCT-116 (CL4003)) | classification of cell line as Low(1), Medium(2) or High(3) sensitivity to compound ([1]; Colon SW-620 (CL4009)) | classification of cell line as Low(1), Medium(2) or High(3) sensitivity to compound ([1]; Leukemia K562(I) CL7005) | classification of cell line as Low(1), Medium(2) or High(3) sensitivity to compound ([1]; Leukemia RPMI-8226(I) (CL7010)) | classification of cell line as Low(1), Medium(2) or High(3) sensitivity to compound ([1]; Melanoma LOX IMVI CL10001) | classification of cell line as Low(1), Medium(2) or High(3) sensitivity to compound ([1]; Melanoma M14 (CL10014)) | classification of cell line as Low(1), Medium(2) or High(3) sensitivity to compound ([1]; Melanoma MALME-3M CL10002) | classification of cell line as Low(1), Medium(2) or High(3) sensitivity to compound ([1]; Melanoma SK-MEL-2 (CL10005)) | classification of cell line as Low(1), Medium(2) or High(3) sensitivity to compound ([1]; Melanoma SK-MEL-5 (CL10007)) | classification of cell line as Low(1), Medium(2) or High(3) sensitivity to compound ([1]; Melanoma SK-MEL-28 (CL10008)) | classification of cell line as Low(1), Medium(2) or High(3) sensitivity to compound ([1]; Melanoma UACC-257 (CL10021)) | classification of cell line as Low(1), Medium(2) or High(3) sensitivity to compound ([1]; NSCLC A549/ATCC (CL1004)) | classification of cell line as Low(1), Medium(2) or High(3) sensitivity to compound ([1]; NSCLC EKVX (CL1008)) | classification of cell line as Low(1), Medium(2) or High(3) sensitivity to compound ([1]; NSCLC HOP-62 (CL1026)) | classification of cell line as Low(1), Medium(2) or High(3) sensitivity to compound ([1]; NSCLC HOP-92 (CL1029)) | classification of cell line as Low(1), Medium(2) or High(3) sensitivity to compound ([1]; NSCLC NCI-H226 CL1013) | sensitivity class NSCLC NCI-H23(I) CL1001 ([1]; cell line NSCLC NCI-H23(I), CL1001) | sensitivity class NSCLC NCI-H522 CL1003 ([1]; cell line NSCLC NCI-H522, CL1003) | sensitivity class Ovarian IGROV1 CL6010 ([1]; cell line Ovarian IGROV1, CL6010) | sensitivity class Ovarian OVCAR-3 CL6001 ([1]; cell line Ovarian OVCAR-3, CL6001) | sensitivity class Ovarian OVCAR-4 CL6002 ([1]; cell line Ovarian OVCAR-4, CL6002) | sensitivity class Ovarian OVCAR-5 CL6003 ([1]; cell line Ovarian OVCAR-5, CL6003) | sensitivity class Ovarian OVCAR-8 CL6005 ([1]; cell line Ovarian OVCAR-8, CL6005) | sensitivity class Ovarian SK-OV-3 CL6011 ([1]; cell line Ovarian SK-OV-3, CL6011) | sensitivity class Prostate DU-145 CL11003 ([1]; cell line Prostate DU-145, CL11003) | sensitivity class Prostate PC-3(I) CL11001 ([1]; cell line Prostate PC-3(I), CL11001) | sensitivity class Renal 786-O CL9018 ([1]; cell line Renal 786-O, CL9018) | sensitivity class Renal RXF-393 CL9016 ([1]; cell line Renal RXF-393, CL9016) | sensitivity class Renal SN12C CL9008 ([1]; cell line Renal SN12C, CL9008) | sensitivity class Renal UO-31 CL9004 ([1]; cell line Renal UO-31, CL9004)
4.9: -Log (GI50) ([2]; Breast T-47D (CL5014)) | -Log (GI50) ([2]; Melanoma UACC-62 (CL10020))
5.0: -Log (GI50) ([2]; Breast MCF7(I) (CL5001)) | -Log (GI50) ([2]; Renal ACHN CL9023) | -Log (GI50) ([2]; Renal CAKI-1 CL9015)
5.8: -Log (GI50) ([2]; Leukemia SR CL7019)
5.5: -Log (GI50) ([2]; Leukemia CCRF-CEM(I) (CL7003)) | -Log (GI50) ([2]; Leukemia HL-60(I) (CL7008))
4.6: -Log (GI50) ([2]; CNS U251(I) CL12009) | -Log (GI50) ([2]; Melanoma M14 (CL10014)) | -Log (GI50) ([2]; Melanoma MALME-3M CL10002) | -Log (GI50) ([2]; NCSLC NCI-H522 CL1003) | -Log (GI50) ([2]; NSCLC NCI-H23(I) CL1001)
3: classification of cell line as Low(1), Medium(2) or High(3) sensitivity to compound ([1]; Leukemia CCRF-CEM(I) (CL7003)) | classification of cell line as Low(1), Medium(2) or High(3) sensitivity to compound ([1]; Leukemia HL-60(I) (CL7008)) | classification of cell line as Low(1), Medium(2) or High(3) sensitivity to compound ([1]; Leukemia MOLT-4 (CL7006)) | classification of cell line as Low(1), Medium(2) or High(3) sensitivity to compound ([1]; Leukemia SR CL7019) | classification of cell line as Low(1), Medium(2) or High(3) sensitivity to compound ([1]; Melanoma UACC-62 (CL10020)) | sensitivity class NSCLC NCI-H460 CL1021 ([1]; cell line NSCLC NCI-H460, CL1021) | sensitivity class Renal ACHN CL9023 ([1]; cell line Renal ACHN, CL9023) | sensitivity class Renal CAKI-1 CL9015 ([1]; cell line Renal CAKI-1, CL9015)
